Results reported in patent publication US12365651B2, “Use of pirfenidone and derivatives for modulation of B lymphocyte activity and organ protection from acute tissue damage” (Washington University, priority 2017, dated 2025).

What was measured:
[1] = system: naïve WT hearts; assay: Flow cytometry of naïve WT hearts after Pirfenidone for 1 week; format: in vivo, mouse; conditions: Pirfenidone 1 week
Source text: Accordingly, we performed FACS analysis 4 days after DT injection.
In order to administer Pirfenidone, mice were fed powdered chow mixed with Pirfenidone (eNovation Chemicals, Bridgewater, NJ, USA, Cat #D404655) at 0.5% in weight or powdered chow alone. […] Unless specifically noted, mice were switched to a diet enriched with Pirfenidone 3 days prior to DT-induced injury or I/R-injury, and maintained on this diet throughout the duration of the experiments. In parallel studies, we fed mice normal chow prior to I/R injury and then administered Pirfenidone acutely at the time of cardiac injury. For these latter studies, mice were injected i.p. with diluent (200 μL phosphate-buffered solution [PBS]) or i.p. with Pirfenidone (200 μL of Pirfenidone [5 mg/mL] in PBS) after reperfusion and the morning after I/R injury (2 injections total). They were switched to Pirfenidone-enriched diet or control diet the evening of I/R injury and maintained on the same diet until completion of the experiment.
For flow cytometry experiments, mice were euthanized in a CO2 chamber and the hearts were perfused with cold PBS, carefully dissected from extracardiac tissue under a stereo microscope, finely minced, suspended in 3 ml of DMEM, and then digested with 120 U of DNAse (Sigma), 180 U of hyaluronidase (Sigma) and 1350 U of Collagenase (Sigma) for 60 minutes at 37Co. The digested material was filtered through 40 μm filters and pelleted by centrifugation (250×g for 3 minutes at 4° C.) in HBSS supplemented with 2% FCS+0.2% bovine serum albumin (BSA). Red blood cells were lysed in ACK lysis buffer (Invitrogen) for 15′ on ice and the remaining cells were resuspended in 300 μL of FACS buffer (PBS with 2% FCS and 2 mM EDTA). Cultured cells were collected for FACS analysis as described above and resuspended in 300 μL of FACS buffer. Samples were labeled with the fluorescently conjugated antibodies outlined in the table below. Cells were stained for 45 minutes on ice, and washed in FACS buffer prior to analysis. All antibodies from Biolegend were used at 0.2 μL per 300 μL sample, while antibodies from BD biosciences were used at 0.4 μL per 300 μL sample. FACS was performed on Beckton Dickinson analyzers (LSRII, Canto, X20 or Fortessa). Compensation controls were generated using UltraComp ebeads (Invitrogen, Carlsbad, CA, USA) and verified on single color control samples obtained staining primary splenocytes. For flow cytometry experiments that involved the DT injury model, we collected serum at the time of terminal sacrifice for quantification of troponin. […] Cell sorting was performed using a FACSAria sorting instrument (Beckton Dickinson) at the Washington University Department of Pathology Flow Cytometry and Sorting Core.

[2] = system: peritoneal derived inflammatory cells (PDICs); assay: CD86 on CD19+ cells in cultured peritoneal derived inflammatory cells (PDICs), wild type; format: cell-based, mouse; conditions: for number of CD19+ CD86high lymphocytes: 24 h, p<0.001
Method: Peritoneal derived inflammatory cells (PDICs) were harvested from the peritoneal cavity of thioglycolate-stimulated wild-type and TIRAP−/− deficient mice. PDIC cultures contain an admixture of inflammatory cells, including CD19+ B cells (40). TIRAP deficient mice were a gift from Dr. Ruslan Medzhitov (Yale University, New Haven, CT). PDICs were harvested on day 4 after i.p. injection of 1 ml of thioglycolate medium (Millipore, Billerica, MA, USA). Mice were euthanized, and the peritoneal cavity was washed 3-4 times with 3 mLs of Dulbecco's modified medium containing 10% fetal calf serum. A 3 mL syringe with an 18-gauge needle was used to inject the peritoneal cavity and retrieve the medium containing PDICs. Harvested cells were centrifuged at 250 g for 5 minutes, re-suspended in 5 mL of media and then filtered through a 40 μm strainer. Cells were plated at ˜1.5 million cells/mL in 12 or 24 well plates. Primary splenic derived B lymphocytes were isolated with the MagniSort Mouse B cell Enrichment Kit (Invitrogen, Carlsbad, CA, USA) according to manufacturer's instruction and plated in 96 well plates at 1 million cells/ml. The purity of isolated B cells was checked by flow cytometry and was >85% in all reported experiments. Both PDICs and primary B lymphocytes were cultured in DMEM with 10% FCS, 1 mM sodium pyruvate, penicillin/streptomycin (GIBCO, 1×), 2 mM L-Glutamine, 10 mM Hepes and 55 μM 2-Mercaptoethanol.
We used LPS-EB ultrapure lipopolysaccharide (InvivoGen, San Diego, CA, USA) or necrotic cell extracts (NCEs) to stimulate the cell cultures. For stimulation with LPS, LPS was added at 100 ng/mL at the time of plating. NCEs were prepared from H9c2 cells, in a similar manner to the protocol described for mouse heart and mouse liver extracts (18). For stimulation, NCEs were added at a final concentration of 10 μg/mL at the time the cells were plated. LPS and NCE stimulation were performed in the presence and absence of Pirfenidone for 24 hours. […]

Cc1ccc(=O)n(-c2ccccc2)c1 [Pirfenidone, 5 methyl-1-phenyl-2-[H] pyridone]
number of CD45+ cells/mg tissue ([1]; p=0.53): no significant effect
Ly6C+CD64 low/− monocytes ([1]; p=0.81): no significant effect
CD64+Ly6Clow/− macrophages ([1]; p=0.82): no significant effect
Ly6G+ neutrophils ([1]; p=0.82): no significant effect
CD19+ B-lymphocytes ([1]; p=0.94): no significant effect
LPS induced expression of CD86 on B cells ([2]; B lymphocytes from the peritoneum, 24 hours, LPS + 0.5% pirfenidone): significantly reduced
number of CD19+ CD86high lymphocytes ([2]; PDICs stimulated with LPS): significantly attenuated
number of CD19+ CD86high lymphocytes ([2]; PDICs stimulated with cytosolic extracts from necrotic cells): significantly attenuated
